Test results taken from patent US5098920A, “1H-substituted-1,2,4-triazole compounds and methods of use thereof for treatment of cardiovascular disorders” (G. D. Searle & Co., priority 1990, dated 1992).
Where two headings read alike, the source gives them in different places.

What was measured:
[1] = test system: angiotensin II receptor; settings: cited from earlier work; for angiotensin II antagonist activity: binding experiments, functional assays and in vivo tests, literature
[2] = test system: AII pressor response; assay: Assay C: In Vivo Intraduodenal Pressor Assay Response for AII Antagonists; parameters: species or system rat (male Sprague-Dawley); settings: rats; for Inhibition: percent inhibition of AII (30 ng/kg i.v.) pressor response; for Duration: time from peak percent inhibition to 50% of peak
Method: Assay C: In Vivo Intraduodenal Pressor Assay Response for AII Antagonists
Male Sprague-Dawley rats weighing 225-300 grams were anesthetized with Inactin (100 mg/kg, i.p.) and catheters were implanted into the trachea, femoral artery, femoral vein and duodenum. Arterial pressure was recorded from the femoral artery catheter on a Gould chart recorder (Gould, Cleveland, Ohio). The fe:moral vein catheter was used for injections of angiotensin II, mecamylamine and atropine. The tracheal cathete'r allows for airway patency, and the duodenal catheter was used for intraduodenal (i.d.) administration of test compounds. After surgery, the rats were allowed to equilibrate for 30 minutes. Mecamylamine (3 mg/kg, 0.3 ml/kg) and atropine (400 ug/kg, 0.3 ml/kg) were then given i.v. to produce ganglion blockade. These compounds were administered every 90 minutes throughout the test procedure. Angiotensin II was given in bolus does i.v. (30 ng/kg in saline with 0.5% bovine serum albumin, 0.1 ml/kg) every 10 minutes three times or until the increase in arterial pressure produced was within 3 mmHg for two consecutive AII injections. The last two AII injections were averaged and were taken as the control AII pressor response. Ten minutes after the final control AII injection, the test compound (dissolved in sodium bicarbonate) was administered i.d. at a dose of 30 or 100 mg/kg in a volume of 0.2 ml. Angiotensin II injections were then given 5, 10, 20, 30, 45, 60, 75, 90, and 120 minutes after administration of the test compound and response of arterial pressure was monitored. The response to AII was calculated as percent of the control response and then the percent inhibition is calculated as 100 minus the percent control response. Duration of action of a test compound was defined as the time from peak percent inhibition to 50% of peak. One compound at one dose was tested in each rat. Each test compound was tested in two rats and the values for the two rats were averaged.

[3] = test system: rabbit aortic rings; assay: Assay B: In Vitro Vascular Smooth Muscle-Response for AII (antagonist activity in rabbit aortic rings); type: cell-based, rabbit (male New Zealand white); settings: Oryctolagus cuniculus, rabbit aorta rings, antagonist at 10^-5 M, read-out: PA2 (converted)
Method: Assay B: In Vitro Vascular Smooth Muscle-Response for AII The compounds of the invention were tested for antagonist activity in rabbit aortic rings. Male New Zealand white rabbits (2-2.5 kg) were sacrificed using an overdose of pentobarbital and exsanguinated via the carotid arteries. The thoracic aorta was removed, cleaned of adherent fat and connective tissue and then cut into 3-mm ring segments. The endothelium was removed from the rings by gently sliding a rolled-up piece of filter paper into the vessel lumen. The rings were then mounted in a water-jacketed tissue bath, maintained at 37° C., between moveable and fixed ends of a stainless steel wire with the moveable end attached to an FTO3 Grass transducer coupled to a Model 7D Grass Polygraph for recording isometric force responses. […] The preparations were equilibrated for one hour before approximately one gram of passive tension was placed on the rings. Angiotensin II concentration-response curves were then recorded (3×10^-10 to 1×10^-5 M). Each concentration of AII was allowed to elicit its maximal contraction, and then AII was washed out repeatedly for 30 minutes before rechallenging with a higher concentration of AII. Aorta rings were exposed to the test antagonist at 10^-5 M for 5 minutes before challenging with AII. Adjacent segments of the same aorta ring were used for all concentration-response curves in the presence or absence of the test antagonist. The effectiveness of the test compound was expressed in terms of pA2 values and were calculated according to H. O. Schild [Br. J. Pharmacol. Chemother., 2, 189-206 (1947)]. […] Each test antagonist was evaluated in aorta rings from two rabbits.

[4] = molecular target: smooth muscle angiotensin II receptor; assay: Assay A: Angiotensin II Binding Activity (displacement of 125I-AII, rat uterine membrane preparation); settings: 50% displacement of specifically bound 125I-AII; rat uterine membranes; 25° C., 60 min
Method: Assay A: Angiotensin II Binding Activity
Compounds of the invention were tested for ability to bind to the smooth muscle angiotensin II receptor using a rat uterine membrane preparation. […] Other chemicals were obtained from Sigma Chemical Co. This assay was carried out according to the method of Douglas et al [Endocrinology, 106, 120-124 (1980)]. Rat uterine membranes were prepared from fresh tissue. All procedures were carried out at 4° C. Uteri were stripped of fat and homogenized in phosphate-buffered saline at pH 7.4 containing 5 mM EDTA. The homogenate was centrifuged at 1500×g for 20 min., and the supernatant was recentrifuged at 100,000×g for 60 min. The pellet was resuspended in buffer consisting of 2 mM EDTA and 50 mM Tris-HCl (pH 7.5) to a final protein concentration of 4 mg/ml. […] The reaction was initiated by the addition of membrane protein and the mixture was incubated at 25° C. for 60 min. The incubation was terminated with ice-cold 50 mM Tris-HCl (pH 7.5) and the mixture was filtered to separate membrane-bound labelled peptide from the free ligand. The incubation tube and filter were washed with ice-cold buffer. Filters were assayed for radioactivity in a Micromedic gamma counter. Nonspecific binding was defined as binding in the presence of 10 μM of unlabelled AII. Specific binding was calculated as total binding minus nonspecific binding. […] Binding data were aralyzed by a nonlinear least-squares curve fitting program.

[5] = only printed value, or first of two printed values

| Compound | Kb [3, 5] [nM] | IC50 [4] [nM] | Kb ([3]; second of two values) [nM] | further results |
| --- | --- | --- | --- | --- |
| CCCCc1nc(Cl)c(CC(=O)O)n1Cc1ccccc1[N+](=O)[O-] [2-butyl-4-chloro-1-(2-nitrobenzyl)imidazole-5-acetic acid] |  |  |  | angiotensin II antagonist activity [1]: specific competitive angiotensin II antagonist activity |
| CCCCc1nc(Cl)c(CC(=O)O)n1Cc1ccccc1Cl [2-n-butyl-4-chloro-1-(2-chlorobenzyl)imidazole-5-acetic acid] |  |  |  | angiotensin II antagonist activity [1]: specific competitive angiotensin II antagonist activity |
| CCCCc1nc(CCCC)n(Cc2ccc(-c3ccccc3C(=O)O)cc2)n1 [Example 2, 4'-[(3,5-dibutyl-1H-1,2.4-triazol-1-yl)methyl][1,1'-biphenyl]-2-carboxylic acid] | 33.1 |  |  | Inhibition ([2]; 30 mg/kg i.d.): 98% |
| CCCCc1nc(CCCC)n(Cc2ccc(-c3ccccc3-c3nnn[nH]3)cc2)n1 [Example 3, 5-[4'-[(3,5-dibutyl-1H-1,2,4-triazol-1-yl)methyl][1,1'-biphenyl]2-yl]-1H-tetrazole] | 2 | 5.4 |  | Inhibition ([2]; 30 mg/kg i.d.): 100%; Duration ([2]; 30 mg/kg i.d.): ≥ 200 min |
| CCCCc1nc(CCCC)n(Cc2ccc(-c3ccccc3C(=O)NNS(=O)(=O)C(F)(F)F)cc2)n1 [Example 5, 4'-[(3,5-dibutyl-1H-1,2,4-triazol-1-yl)methyl][1,1'-biphenyl]-2-carboxylicacid, 2-[(trifluoromethyl)sulfonyl]hydrazide] | 63.1 | 200 |  | Inhibition ([2]; 100 mg/kg i.d.): 38%; Duration ([2]; 100 mg/kg i.d.): 20 to 30 min |
| CCCCc1nc(Cl)nn1Cc1ccc(-c2ccccc2C(=O)O)cc1 [Example 6, 4'-[(5-butyl-3-chloro-1H-1,2,4-triazol-1-yl)methyl][1,1'-biphenyl]-2-carboxylic acid] | 204 |  |  | Inhibition ([2]; 100 mg/kg i.d.): 90%; Duration ([2]; 100 mg/kg i.d.): 120 min |
| CCCCc1nc(Cl)nn1Cc1ccc(-c2ccccc2-c2nnn[nH]2)cc1 [Example 7] | 9.33 | 84 |  |  |
| CCCCc1nc(Cl)n(Cc2ccc(-c3ccccc3C(=O)O)cc2)n1 [Example 8, 4'-[(3-butyl-5-chloro-1H-1,2,4-triazol-1-yl)methyl][1,1'-biphenyl]-2-carboxylic acid] |  | 1700 |  |  |
| CCCCc1nc(Cl)n(Cc2ccc(-c3ccccc3-c3nnn[nH]3)cc2)n1 [Example 9] | 40.7 | 700 |  | Inhibition ([2]; 30 mg/kg i.d.): 100%; Duration ([2]; 30 mg/kg i.d.): 230 min |
| CCCCc1nc(C(F)(F)CCC)nn1Cc1ccc(-c2ccccc2-c2nnn[nH]2)cc1 [Example 10, 5-[4'-[[5-butyl-3-(1,1-difluorobutyl)-1H-1,2,4-triazol-1-yl]methyl][1,1'-biphenyl]-2-yl]-1H-tetrazole] | 6.46 | 4.9 | 25.7 | Inhibition ([2]; 30 mg/kg i.d.): 100%; Duration ([2]; 30 mg/kg i.d.): 240 min |
| CCCCc1nc(C(F)(F)CCC)n(Cc2ccc(-c3ccccc3-c3nnn[nH]3)cc2)n1 [Example 11, 5-[4'-[[3-butyl-5-(1,1-difluorobutyl)-1H-1,2,4-triazol-1-yl]methyl][1,1'-biphenyl]-2-yl]-1H-tetrazole] | 355 | 160 | 170 |  |
| CCCc1nc(CCC)n(Cc2ccc(-c3ccccc3-c3nnn[nH]3)cc2)n1 [Example 12, 5-[4'-[(3,5-dipropyl-1H-1,2,4-triazol-1-yl)methyl][1,1'-biphenyl]-2-yl]-1H-tetrazole] | 2.19 | 6 | 2.57 |  |
| CCCCCc1nc(CCCCC)n(Cc2ccc(-c3ccccc3-c3nnn[nH]3)cc2)n1 [Example 13, 5-[4'-[(3,5-dipentyl-1H-1,2,4-triazol-1-yl)methyl][1,1'-biphenyl]-2-yl]-1H-tetrazole] | 2 |  | 1.41 |  |
| CCCCc1nc(CCC)nn1Cc1ccc(-c2ccccc2-c2nnn[nH]2)cc1 [Example 14, 5-[4'-[(5-butyl-3-propyl-1H-1,2,4-triazol-1-yl)methyl]-[1,1'-biphenyl]-2-yl]-1H-tetrazole] | 1.45 | 7.2 | 1.95 |  |
| CCCCc1nc(CCC)n(Cc2ccc(-c3ccccc3-c3nnn[nH]3)cc2)n1 [Example 15, 5-[4'-[(3-butyl-5-propyl-1H-1,2,4-triazol-1-yl)methyl]-[1,1'-biphenyl]-2-yl]-1H-tetrazole] | 4.9 | 16 | 5.01 |  |
| CCCCc1nc(CCC(C)C)n(Cc2ccc(-c3ccccc3-c3nnn[nH]3)cc2)n1 [Example 16, 5-[4'-[(3-butyl-5-isopentyl-1H-1,2,4-triazol-1-yl)methyl]-[1,1'-biphenyl]-2-yl]-1H-tetrazole] | 1.12 | 6.4 | 0.575 |  |
| CCCCc1nc(CCC(C)C)nn1Cc1ccc(-c2ccccc2-c2nnn[nH]2)cc1 [Example 17, 5-[4'-[(5-butyl-3-isopentyl-1H-1,2,4-triazol-1-yl]methyl)[1,1'-biphenyl]-2-yl]-1H-tetrazole] | 2.29 | 4 | 3.98 |  |
| CNCC(=O)N[C@@H](CCCN=C(N)N)C(=O)N[C@H](C(=O)N[C@@H](Cc1ccc(O)cc1)C(=O)N[C@H](C(=O)N[C@@H](Cc1cnc[nH]1)C(=O)N1CCC[C@H]1C(=O)N[C@@H](C)C(=O)O)C(C)C)C(C)C [Saralasin] |  |  |  | residual agonist activity ([1]; background statement): significant residual agonist activity |
